Measured values: US7655677B2, “Composition and method for controlling house insect pest” (priority 2002, dated 2010)

Tests used:
Type in all cases: in vivo
[1] = tested on: Coptotermes formosanus; assay: Test Example 14: Japanese red pine poison bait, spread from bait-treated to non-treated termites; details: for Mortality TS (Termite soldiers): 5 non-treated soldiers; for Mortality TW (Termite workers): 5 treated + 5 non-treated workers
Procedure: A Japanese red pine poison bait chemical prepared in the same manner as in Test Example 13, was placed in a cylindrical cup made of acrylic resin (i.e. a cup having a hole with a diameter of 10 mm formed in the bottom and having hard plaster (Dental Stone) set at the bottom in a thickness of 10 mm), and 5 termite workers (Coptotermes formosanus) starved for 3 days, were released and permitted to ingest for 48 hours. Such bait-treated 5 alive termite workers were transferred together with non-treated 5 termite workers and 5 termite soldiers to a cup wherein a filter paper containing water was placed, and they were kept at room temperature of 25° C., whereby the number of dead termite workers and soldiers was examined as the time passed, and the mortality was calculated by the following formula.
Mortality of workers (%)=(number of dead termite workers/treated 5 termite workers+non-treated 5 termite workers)×100
Mortality of soldiers (%) (number of dead termite soldiers/non-treated 5 termite soldiers)×100

[2] = tested on: Reticulitermes speratus; assay: Test Example 16: pulp (KIMUTAORU) poison bait, termite mortality after 18 days; details: pulp (KIMUTAORU) bait 0.1%
From the text: Fresh pulp (2 cm×2 cm×0.1 cm) was immersed in a methanol solution of a sample compound. Then, it was dried to obtain a fresh pulp poison bait chemical containing 0.1% of the sample compound. This poison bait chemical was placed in a cylindrical cup made of acrylic resin (i.e. a cup having a hole with a diameter of 10 mm formed in the bottom and having hard plaster (Dental Stone) set at the bottom in a thickness of 10 mm), and 20 termite workers (Reticulitermes speratus) were released thereon. The cup was placed in a container having wet cotton laid over the bottom, and the container was maintained at room temperature of 25° C. for 18 days, whereupon the number of dead termites in the cup was examined, and the mortality was calculated.
A test was carried out in the same manner as the above Test Example 15 except that fresh pulp was changed to pulp (KIMUTAORU, tradename, manufactured by CRECIA Co.).

[3] = tested on: Coptotermes formosanus; assay: Test Example 18: dust-coated termite workers mixed with non-treated termites, mortality with time; details: 0.5% dust; for Mortality TS (Termite soldiers): 10 non-treated soldiers; for Mortality TW (Termite workers): 15 treated + 10 non-treated workers
Procedure: 1 mg of each dust prepared in the same manner as in Test Example 17, was uniformly dispersed in a small size glass Petri dish with a diameter of 45 mm, and 15 termite workers (Coptotermes formosanus) were released and treated for dust coating. The treated termite workers were put into a cylindrical cup made of acrylic resin (i.e. a cup having a hole with a diameter of 10 mm formed in the bottom and having hard plaster (Dental Stone) set at the bottom in a thickness of 10 mm) containing a bait log, together with 10 non-treated termite workers and 10 non-treated termite soldiers. The cup was placed in a container having wet cotton laid over the bottom, and the container was maintained at room temperature of 25° C., whereby the number of dead termites in the cup was examined as the time passed, and the mortality was calculated by the following formula.
Mortality of termite workers (%)=(Number of dead termite workers/15 treated termite workers+10 non-treated termite workers)×100
Mortality of termite soldiers (%) (Number of dead termite soldiers/10 non-treated termite soldiers)×100

[4] = tested on: Lasius japonicus; assay: Test Example 23: skim milk poison bait placed near ant nest, number of ants passing the gate per minute; details: 0.2% (W/W) bait, ants through the gate per minute
From the text: 2 g of this poison bait chemical was placed directly on an optional ground surface distanced by about 50 cm from the gate of the ant nest. Before, 2 days after, 3 days after and 5 days after placing the poison bait chemical, the number of ants going out and coming in through the gate per minute was examined.

CC(=NN=C(Cc1ccc(C(F)(F)F)cc1)c1ccc(F)cc1)N(C)C [Compound No. II-2, [4′-fluoro-2-(4-trifluoromethylphenyl)acetophenone]N′-[1-(dimethylamino)ethylidene]hydrazone]
Mortality TS (Termite soldiers) ([1]; bait 0.05%, 6 Days later): 0%
Mortality TW (Termite workers) ([1]; bait 0.05%, 6 Days later): 30%
Mortality TS (Termite soldiers) ([1]; bait 0.05%, 8 Days later): 0%
Mortality TW (Termite workers) ([1]; bait 0.05%, 8 Days later): 30%
Mortality TS (Termite soldiers) ([1]; bait 0.05%, 15 Days later): 40%
Mortality TW (Termite workers) ([1]; bait 0.05%, 15 Days later): 70%
Mortality TS (Termite soldiers) ([1]; bait 0.1%, 6 Days later): 0%
Mortality TW (Termite workers) ([1]; bait 0.1%, 6 Days later): 50%
Mortality TS (Termite soldiers) ([1]; bait 0.1%, 8 Days later): 20%
Mortality TW (Termite workers) ([1]; bait 0.1%, 8 Days later): 60%
Mortality TS (Termite soldiers) ([1]; bait 0.1%, 15 Days later): 100%
Mortality TW (Termite workers) ([1]; bait 0.1%, 15 Days later): 100%
Mortality [2]: 100%
Mortality TS (Termite soldiers) ([3]; 1 Day later): 0%
Mortality TW (Termite workers) ([3]; 1 Day later): 0%
Mortality TS (Termite soldiers) ([3]; 8 Days later): 0%
Mortality TW (Termite workers) ([3]; 8 Days later): 4%
Mortality TS (Termite soldiers) ([3]; 15 Days later): 40%
Mortality TW (Termite workers) ([3]; 15 Days later): 52%
Mortality TS (Termite soldiers) ([3]; 19 Days later): 100%
Mortality TW (Termite workers) ([3]; 19 Days later): 100%
Ants passing the nest gate per minute ([4]; 2 Days later): 11
Ants passing the nest gate per minute ([4]; 3 Days later): 3
Ants passing the nest gate per minute ([4]; 5 Days later): 0
Ants passing the nest gate per minute ([4]; Before placing poison bait chemical): 153
